Assays:
Format in all cases: functional, cell-based
[1] = test system: HT-29; test: Antiproliferative activity against human HT-29 cells assessed as reduction in cell viability incubated for 24 hrs by MTT assay; conditions: HT-29, 24 h
[2] = test system: HCT-116; test: Antiproliferative activity against human HCT-116 cells assessed as reduction in cell viability incubated for 24 hrs by MTT assay; conditions: HCT-116, 24 h
[3] = test system: HepG2; test: Antiproliferative activity against human HepG2 cells assessed as reduction in cell viability incubated for 24 hrs by MTT assay; conditions: HepG2, 24 h
[4] = test system: MCF7; test: Antiproliferative activity against human MCF7 cells assessed as reduction in cell viability incubated for 24 hrs by MTT assay; conditions: MCF7, 24 h

IC50 [1] [µM]	IC50 [2] [µM]	IC50 [3] [µM]	IC50 [4] [µM]	SMILES
0.43	0.38	0.53	0.63	CC(=O)O[C@H]1C=C([C@H](C)[C@H]2CC(C)=C(C)C(=O)O2)[C@@]2(C)CC[C@H]3[C@@H](C[C@H]4O[C@]45[C@@H](OC(=O)/C=C/c4cccs4)C=CC(=O)[C@]35C)[C@]12O
0.8	0.6	1.57	3.05	CC(=O)O[C@H]1C=C([C@H](C)[C@H]2CC(C)=C(C)C(=O)O2)[C@@]2(C)CC[C@H]3[C@@H](C[C@H]4O[C@]45[C@@H](OC(C)=O)C=CC(=O)[C@]35C)[C@]12O
1.08	0.57	1.66	4.81	CCC(C)C(NC(=O)OC(C)(C)C)C(=O)O[C@H]1C=CC(=O)[C@]2(C)[C@H]3CC[C@]4(C)C([C@H](C)[C@H]5CC(C)=C(C)C(=O)O5)=C[C@H](OC(C)=O)[C@@]4(O)[C@@H]3C[C@H]3O[C@]132 (stereo not given in full)
0.37	0.16	0.31	0.61	CC(=O)O[C@H]1C=C([C@H](C)[C@H]2CC(C)=C(C)C(=O)O2)[C@@]2(C)CC[C@H]3[C@@H](C[C@H]4O[C@]45[C@@H](OC(=O)/C=C/C(=O)N4CCCCC4)C=CC(=O)[C@]35C)[C@]12O
0.99	0.78	0.67	3.89	CC(=O)O[C@H]1C=C([C@H](C)[C@H]2CC(C)=C(C)C(=O)O2)[C@@]2(C)CC[C@H]3[C@@H](C[C@H]4O[C@]45[C@@H](OC(=O)N4CCOCC4)C=CC(=O)[C@]35C)[C@]12O
3.5	3.11	6.05	> 20	CC(=O)O[C@H]1C=C([C@H](C)[C@H]2CC(C)=C(C)C(=O)O2)[C@@]2(C)CC[C@H]3[C@@H](C[C@H]4O[C@]45C(=O)C=CC(=O)[C@]35C)[C@]12O
0.77	1.23	0.7	1.71	CC(=O)O[C@H]1C=C([C@H](C)[C@H]2CC(C)=C(C)C(=O)O2)[C@@]2(C)CC[C@H]3[C@@H](C[C@H]4O[C@]45[C@@H](OC(=O)/C=C/c4ccccc4)C=CC(=O)[C@]35C)[C@]12O
0.78	0.33	0.52	1.06	CC(=O)O[C@H]1C=C([C@H](C)[C@H]2CC(C)=C(C)C(=O)O2)[C@@]2(C)CC[C@H]3[C@@H](C[C@H]4O[C@]45[C@@H](OC(=O)C(CC(C)C)NC(=O)OC(C)(C)C)C=CC(=O)[C@]35C)[C@]12O (stereo not given in full)
0.25	0.2	0.29	0.38	CC(=O)O[C@H]1C=C([C@H](C)[C@H]2CC(C)=C(C)C(=O)O2)[C@@]2(C)CC[C@H]3[C@@H](C[C@H]4O[C@]45[C@@H](OC(=O)/C=C/C(=O)N4CCCC4)C=CC(=O)[C@]35C)[C@]12O
> 20	> 20	> 20	> 20	CC(=O)O[C@H]1C=C([C@H](C)[C@H]2CC(C)=C(C)C(=O)O2)[C@@]2(C)CC[C@H]3[C@@H](C[C@H]4O[C@]45[C@@H](O)C(N(C)CC(=O)O)CC(=O)[C@]35C)[C@]12O (stereo not given in full)
1.79	1.95	2.81	4.33	COC(=O)O[C@H]1C=CC(=O)[C@]2(C)[C@H]3CC[C@]4(C)C([C@H](C)[C@H]5CC(C)=C(C)C(=O)O5)=C[C@H](OC(C)=O)[C@@]4(O)[C@@H]3C[C@H]3O[C@]132
0.3	0.25	0.31	0.45	CCN(CC)C(=O)/C=C/C(=O)O[C@H]1C=CC(=O)[C@]2(C)[C@H]3CC[C@]4(C)C([C@H](C)[C@H]5CC(C)=C(C)C(=O)O5)=C[C@H](OC(C)=O)[C@@]4(O)[C@@H]3C[C@H]3O[C@]132
1.06	1.77	3.01	6.14	CC(=O)O[C@H]1C=C([C@H](C)[C@H]2CC(C)=C(C)C(=O)O2)[C@@]2(C)CC[C@H]3[C@@H](C[C@H]4O[C@]45[C@@H](O[Si](C)(C)C(C)(C)C)C=CC(=O)[C@]35C)[C@]12O
> 20	> 20	> 20	> 20	CC(=O)O[C@H]1C=C([C@H](C)[C@H]2CC(C)=C(C)C(=O)O2)[C@@]2(C)CC[C@H]3[C@@H](C[C@H]4O[C@]45[C@@H](O)C(n4ccnc4)CC(=O)[C@]35C)[C@]12O (stereo not given in full)
0.37	0.23	0.3	0.53	C/C=C/C(=O)O[C@H]1C=CC(=O)[C@]2(C)[C@H]3CC[C@]4(C)C([C@H](C)[C@H]5CC(C)=C(C)C(=O)O5)=C[C@H](OC(C)=O)[C@@]4(O)[C@@H]3C[C@H]3O[C@]132
0.45	0.43	0.31	0.76	CC(=O)O[C@H]1C=C([C@H](C)[C@H]2CC(C)=C(C)C(=O)O2)[C@@]2(C)CC[C@H]3[C@@H](C[C@H]4O[C@]45[C@@H](OC(=O)/C=C/c4ccco4)C=CC(=O)[C@]35C)[C@]12O
1.01	0.67	1.06	2.1	CC(=O)O[C@H]1C=C([C@H](C)[C@H]2CC(C)=C(C)C(=O)O2)[C@@]2(C)CC[C@H]3[C@@H](C[C@H]4O[C@]45[C@@H](OC(=O)C4CCCN4C(=O)OC(C)(C)C)C=CC(=O)[C@]35C)[C@]12O (stereo not given in full)
0.8	0.6	1.57	3.05	CC(=O)O[C@H]1C=C([C@H](C)[C@H]2CC(C)=C(C)C(=O)O2)[C@@]2(C)CC[C@H]3[C@@H](C[C@H]4O[C@]45[C@@H](OC(=O)C(NC(=O)OC(C)(C)C)C(C)C)C=CC(=O)[C@]35C)[C@]12O (stereo not given in full)
1.79	1.95	2.81	4.33	CC(=O)O[C@H]1C=C([C@H](C)[C@H]2CC(C)=C(C)C(=O)O2)[C@@]2(C)CC[C@H]3[C@@H](C[C@H]4O[C@]45[C@@H](OC(=O)C(C)NC(=O)OC(C)(C)C)C=CC(=O)[C@]35C)[C@]12O (stereo not given in full)
> 20	> 20	> 20	> 20	CC(=O)O[C@H]1C=C([C@H](C)[C@H]2CC(C)=C(C)C(=O)O2)[C@@]2(C)CC[C@H]3[C@@H](C[C@@H](O)[C@@]4(Cl)[C@@H](O)C=CC(=O)[C@]34C)[C@]12O
0.23	0.25	0.24	0.28	CCOC(=O)/C=C/C(=O)O[C@H]1C=CC(=O)[C@]2(C)[C@H]3CC[C@]4(C)C([C@H](C)[C@H]5CC(C)=C(C)C(=O)O5)=C[C@H](OC(C)=O)[C@@]4(O)[C@@H]3C[C@H]3O[C@]132
4.05	5.84	5.76	8.18	CC(=O)O[C@H]1C=C([C@H](C)[C@H]2CC(C)=C(C)C(=O)O2)[C@@]2(C)CC[C@H]3[C@@H](C[C@H]4O[C@]45[C@@H](OC(=O)CCc4ccccc4)C=CC(=O)[C@]35C)[C@]12O
0.43	0.46	0.37	0.76	CC(=O)O[C@H]1C=C([C@H](C)[C@H]2CC(C)=C(C)C(=O)O2)[C@@]2(C)CC[C@H]3[C@@H](C[C@H]4O[C@]45[C@@H](OC(=O)/C=C/C(=O)N4CCOCC4)C=CC(=O)[C@]35C)[C@]12O
0.59	0.67	0.57	1.21	CCO/C=C/C(=O)O[C@H]1C=CC(=O)[C@]2(C)[C@H]3CC[C@]4(C)C([C@H](C)[C@H]5CC(C)=C(C)C(=O)O5)=C[C@H](OC(C)=O)[C@@]4(O)[C@@H]3C[C@H]3O[C@]132
1.12	1.34	1.45	2.11	C=C(C)C(=O)O[C@H]1C=CC(=O)[C@]2(C)[C@H]3CC[C@]4(C)C([C@H](C)[C@H]5CC(C)=C(C)C(=O)O5)=C[C@H](OC(C)=O)[C@@]4(O)[C@@H]3C[C@H]3O[C@]132
1.78	1.97	2.37	1.79	CCN(C)C(=O)O[C@H]1C=CC(=O)[C@]2(C)[C@H]3CC[C@]4(C)C([C@H](C)[C@H]5CC(C)=C(C)C(=O)O5)=C[C@H](OC(C)=O)[C@@]4(O)[C@@H]3C[C@H]3O[C@]132
2.39	3.87	2.91	4.08	CC(=O)O[C@H]1C=C([C@H](C)[C@H]2CC(C)=C(C)C(=O)O2)[C@@]2(C)CC[C@H]3[C@@H](C[C@H]4O[C@]45[C@@H](OC(=O)c4cccs4)C=CC(=O)[C@]35C)[C@]12O
1.08	0.57	1.66	4.81	CCC(=O)O[C@H]1C=CC(=O)[C@]2(C)[C@H]3CC[C@]4(C)C([C@H](C)[C@H]5CC(C)=C(C)C(=O)O5)=C[C@H](OC(C)=O)[C@@]4(O)[C@@H]3C[C@H]3O[C@]132
1.42	1.35	1.52	2.62	C/C=C/C=C/C(=O)O[C@H]1C=CC(=O)[C@]2(C)[C@H]3CC[C@]4(C)C([C@H](C)[C@H]5CC(C)=C(C)C(=O)O5)=C[C@H](OC(C)=O)[C@@]4(O)[C@@H]3C[C@H]3O[C@]132
0.19	0.35	0.36	0.62	CC(=O)O[C@H]1C=C([C@H](C)[C@H]2CC(C)=C(C)C(=O)O2)[C@@]2(C)CC[C@H]3[C@@H](C[C@H]4O[C@]45[C@@H](OC(=O)/C=C/C(=O)N(C(C)C)C(C)C)C=CC(=O)[C@]35C)[C@]12O

From ChEMBL document CHEMBL4665792 (J Med Chem, 2020)
